We go through 24 compounds from US7786165B2, “Aminophenylpropanoic acid derivative” (Takeda Pharmaceutical Company Limited, priority 2004, dated 2010).

Structures can show the parent of a compound that is named as a salt.

The target in the test is T1, human GPR40 (Homo sapiens, UniProt O14842).
T1 construct: expressed in transfected cells; host or cells: CHO cell line stably expressing human GPR40
T1 sequence (O14842 whole entry): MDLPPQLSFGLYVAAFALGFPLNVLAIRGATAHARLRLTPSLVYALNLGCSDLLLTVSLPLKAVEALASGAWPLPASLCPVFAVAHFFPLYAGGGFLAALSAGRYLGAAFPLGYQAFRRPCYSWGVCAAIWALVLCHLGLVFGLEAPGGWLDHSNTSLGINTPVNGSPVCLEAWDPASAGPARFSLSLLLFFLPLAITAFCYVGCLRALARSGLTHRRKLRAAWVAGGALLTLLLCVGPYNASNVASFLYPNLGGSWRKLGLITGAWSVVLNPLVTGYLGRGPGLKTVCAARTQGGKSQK
Put plainly: Determination of EC50 for human GPR40: intracellular calcium change by FLIPR in CHO cells stably expressing human GPR40. The format is cell-based. To be noted: CHO cell line stably expressing human GPR40, changes in intracellular calcium concentration, Fluo3-AM, read-out: EC50 (Receptor Function Modulating Action On GPR40). Here is the method:
Determination of EC50 of the Compound of the Present Invention for Human GPR40
For determination of EC50, CHO cell line that stably expressed human GPR40 was used. Unless otherwise indicated, the CHO cell line was cultured using α-MEM medium (Invitrogen) containing 10% fetal calf serum (Invitrogen).
The cells cultured to nearly confluent were rinsed with PBS (Invitrogen) on the previous day of the assay, peeled off with 0.05% Trypsin-EDTA solution (Invitrogen) and recovered by centrifugation. The number of the obtained cells was counted, and the cells were diluted such that 3×10^5 cells were contained per 1 mL of the medium, dispensed to a black welled 96-well plate (coster) by 100 μL per well and cultured overnight in a CO2 incubator. Various test compounds were added to the CHO cells thus prepared, and the changes in the intracellular calcium concentration were measured using FLIPR (Molecular Device). The below-mentioned pre-treatment was applied to measure changes in the intracellular calcium concentration by FLIPR.
First, an assay buffer for adding a fluorescence dye Fluo3-AM (DOJIN) to the cells, or for washing the cells immediately before FLIPR assay was prepared. To a solution of HBSS (Invitrogen, 1000 mL) to which 1M HEPES (pH 7.4, DOJIN, 20 mL) added (hereinafter HBSS/HEPES solution) was added a solution (10 mL) obtained by dissolving probenecid (Sigma, 710 mg) in 1N NaOH (5 mL), and adding and mixing an HBSS/HEPES solution (5 mL), and the resulting solution was used as an assay buffer. Next, Fluo3-AM (50 μg) was dissolved in dimethylsulfoxide (Wako, 21 μL), and an equivalent amount of 20% pluronic acid (Molecular Probes) was added and mixed. The solution was added to the assay buffer (10.6 mL) supplemented with fetal vovine serum (105 μL) to give a fluorescence dye solution. The medium of the CHO cells inoculated to the black welled 96-well plate on the previous day of assay was removed, the fluorescence dye solution was immediately dispensed by 100 μL per well and the cells were cultured in a CO2 incubator for 1 hr to allow intake of the fluorescence dye by the cells. The cells after the culture were washed with the above-mentioned assay buffer and set on FLIPR. The test compound was diluted with dimethylsulfoxide in advance, dispensed to polypropylene 96-well plate (sample plate) by […], and cryopreserved at −20° C. To the thawed sample plate was added an assay buffer containing 0.015% CHAPS (DOJIN) by 198 μL, and simultaneously set on FLIPR together with the cell plate. After the aforementioned pre-treatment, changes in the intracellular calcium concentration upon addition of various test compounds as measured by FLIPR. Based on the results, a dose-response curve of each test compound was formed and EC50 was calculated.
On the technique in general: Calcium flux is commonly read through the fluorescence of an indicator in the cells.
Take `CCOCCOc1ccc(-c2cc(CNc3ccc(CCC(=O)O)c(F)c3)cc3c2OC(C)(C)C3)cc1` [Example 136, 3-{4-[({7-[4-(2-ethoxyethoxy)phenyl]-2,2-dimethyl-2,3-dihydro-1-benzofuran-5-yl}methyl)amino]-2-fluorophenyl}propanoic acid methanesulfonate]: the EC50 – broadly, the concentration that produces a half-maximal response – is less than 100 nM. With `O=C(O)CCc1ccc(NC2CCc3c(Oc4ccccc4)cccc32)cc1` (stereo not drawn) [Example 212, 3-{4-[(4-phenoxy-2,3-dihydro-1H-inden-1-yl)amino]phenyl}propanoic acid], the EC50 was less than 100 nM. As for `Cc1cc(OCC(=O)O)cc(C)c1-c1cccc(CNc2ccc(CCC(=O)O)c(F)c2)c1` [Example 100, 3-[4-({[4′-(carboxymethoxy)-2′,6′-dimethylbiphenyl-3-yl]methyl}amino)-2-fluorophenyl]propanoic acid], the figure is less than 1000 nM; as for `Cc1cc(OCC2CC2)cc(C)c1-c1cccc(CNc2ccc(CCC(=O)O)cc2)c1` [Example 33, 3-[4-({[4′-(cyclopropylmethoxy)-2′,6′-dimethylbiphenyl-3-yl]methyl}amino)phenyl]propanoic acid hydrochloride], less than 100 nM; as for `Cc1cc(OCc2ccccc2)cc(C)c1-c1cccc(CNc2ccc(CCC(=O)O)cc2)c1` [Example 30, 3-[4-({[4′-(benzyloxy)-2′,6′-dimethylbiphenyl-3-yl]methyl}amino)phenyl]propanoic acid hydrochloride], less than 100 nM. To `Cc1cc(OCC2(O)CCS(=O)(=O)CC2)cc(C)c1-c1cccc(CNc2ccc(CCC(=O)O)c(F)c2)c1` [Example 188, 3-{2-fluoro-4-[({4′-[(4-hydroxy-1,1-dioxidotetrahydro-2H-thiopyran-4-yl)methoxy]-2′,6′-dimethylbiphenyl-3-yl}methyl)amino]phenyl}propanoic acid] belongs less than 100 nM; to `CCS(=O)(=O)CCOc1cc(C)c(-c2cccc(CNc3ccc(CCC(=O)O)c(F)c3)c2)c(C)c1` [Example 146, 3-{4-[({4′-[2-(ethylsulfonyl)ethoxy]-2′,6′-dimethylbiphenyl-3-yl}methyl)amino]-2-fluorophenyl}propanoic acid methanesulfonate], less than 100 nM.

Consider `Cc1cccc(C)c1-c1cc(CNc2ccc(CCC(=O)O)c(F)c2)cc(OCc2ccccc2)c1` [Example 105, 3-[4-({[5-(benzyloxy)-2′,6′-dimethylbiphenyl-3-yl]methyl}amino)-2-fluorophenyl]propanoic acid methanesulfonate], for which the EC50 was less than 100 nM. As for `CCOCCOc1cc(C)c(-c2cccc(CNc3ccc(CC(F)(F)C(=O)O)cc3)c2)c(C)c1` [Example 117, 3-[4-({[4′-(2-ethoxyethoxy)-2′,6′-dimethylbiphenyl-3-yl]methyl}amino)phenyl]-2,2-difluoropropanoic acid], the figure is less than 100 nM; as for `CCOCCS(=O)(=O)c1cc(C)c(-c2cccc(CNc3ccc(CCC(=O)O)c(F)c3)c2)c(C)c1` [Example 184, 3-{4-[({4′-[(2-ethoxyethyl)sulfonyl]-2′,6′-dimethylbiphenyl-3-yl}methyl)amino]-2-fluorophenyl}propanoic acid], less than 100 nM. On to `Cn1ncc(COc2ccc(CNc3ccc(CCC(=O)O)cc3)cc2)c1-c1ccc(F)cc1` [Example 47, 3-{4-[(4-{[5-(4-fluorophenyl)-1-methyl-1H-pyrazol-4-yl]methoxy}benzyl)amino]phenyl}propanoic acid], for which the EC50 was less than 1000 nM. For `Cc1cc(OS(C)(=O)=O)cc(C)c1-c1cccc(CNc2ccc(CCC(=O)O)c(F)c2)c1` [Example 123, 3-{4-[({2′,6′-dimethyl-4′-[(methylsulfonyl)oxy]biphenyl-3-yl}methyl)amino]-2-fluorophenyl}propanoic acid], the EC50 is less than 100 nM. To `CC(C)COc1ccc(CNc2ccc(CCC(=O)O)cc2)cc1CN1c2ccccc2C=CC1(C)C` [Example 138, 3-[4-({3-[(2,2-dimethylquinolin-1(2H)-yl)methyl]-4-isobutoxybenzyl}amino)phenyl]propanoic acid] belongs less than 1000 nM; to `CCCN(Cc1ccc(CNc2ccc(CCC(=O)O)cc2)cc1)c1nc(-c2ccccc2)cs1` [Example 21, 3-{4-[(4-{[(4-phenyl-1,3-thiazol-2-yl)(propyl)amino]methyl}benzyl)amino]phenyl}propanoic acid], less than 100 nM; to `CCOCCOc1cc(C)c(-c2cccc(CNc3ccc(CCC(=O)O)c(F)c3)c2)c(C)c1` [Example 40, 3-[4-({[4′-(2-ethoxyethoxy)-2′,6′-dimethylbiphenyl-3-yl]methyl}amino)-2-fluorophenyl]propanoic acid hydrochloride], less than 100 nM. To `Cc1cc(OCC2(C)COC2)cc(C)c1-c1cccc(CNc2ccc(CCC(=O)O)c(F)c2)c1` [Example 151, 3-{4-[({2′,6′-dimethyl-4′-[(3-methyloxetan-3-yl)methoxy]biphenyl-3-yl}methyl)amino]-2-fluorophenyl}propanoic acid methanesulfonate] belongs less than 100 nM; to `Cc1cccc(C)c1-c1cccc(CNc2ccc(CCC(=O)O)cc2)c1` [Example 2, 3-(4-{[(2′,6′-dimethylbiphenyl-3-yl)methyl]amino}phenyl)propanoic acid], less than 10 nM.

As to `O=C(O)CCc1ccc(NCc2ccc(Cn3c(-c4ccccc4)cc4ccccc43)cc2)cc1` [Example 12, 3-[4-({4-[(2-phenyl-1H-indol-1-yl)methyl]benzyl}amino)phenyl]propanoic acid hydrochloride], the EC50 is less than 100 nM. To `CCOCCOc1cc(C)c(-c2cccc(CNc3ccc4c(c3)OCC4CC(=O)O)c2)c(C)c1` (stereo not drawn) [Example 86, [6-({[4′-(2-ethoxyethoxy)-2′,6′-dimethylbiphenyl-3-yl]methyl}amino)-2,3-dihydro-1-benzofuran-3-yl]acetic acid hydrochloride] belongs less than 100 nM.

Regarding `Cc1cc(OC2CCS(=O)(=O)CC2)cc(C)c1-c1cccc(CNc2ccc(CCC(=O)O)c(F)c2)c1` [Example 204, 3-{4-[({4′-[(1,1-dioxidotetrahydro-2H-thiopyran-4-yl)oxy]-2′,6′-dimethylbiphenyl-3-yl}methyl)amino]-2-fluorophenyl}propanoic acid methanesulfonate], the EC50 is less than 100 nM. To `CC(C)(C)c1cc(OCc2ccccc2)n(Cc2ccc(CNc3ccc(CCC(=O)O)c(F)c3)cc2)n1` [Example 171, 3-{4-[(4-{[5-(benzyloxy)-3-tert-butyl-1H-pyrazol-1-yl]methyl}benzyl)amino]-2-fluorophenyl}propanoic acid dimethanesulfonate] belongs less than 100 nM; to `O=C(O)CCc1ccc(NC2CCc3cc(OCc4ccccc4)ccc32)cc1` (stereo not drawn) [Example 210, 3-(4-{[5-(benzyloxy)-2,3-dihydro-1H-inden-1-yl]amino}phenyl)propanoic acid], less than 100 nM. As for `Cc1ccc2ccccc2c1-c1cccc(CNc2ccc(CCC(=O)O)cc2)c1` [Example 26, 3-(4-{[3-(2-methyl-1-naphthyl)benzyl]amino}phenyl)propanoic acid hydrochloride], the figure is less than 100 nM; as for `Cc1ccc(COc2ccc(CNc3ccc(CCC(=O)O)c(F)c3)cc2CC(C)C)cc1` [Example 131, 3-[2-fluoro-4-({3-isobutyl-4-[(4-methylbenzyl)oxy]benzyl}amino)phenyl]propanoic acid], less than 100 nM.
